Measurements reported in patent US7071180B2, “Certain arylaliphatic and heteroaryl-aliphatic piperazinyl pyrazines and their use in the treatment of serotonin-related diseases” (Biovitrum AB, priority 1999, dated 2006).

target: T1, human 5-HT2c receptor (Homo sapiens, UniProt P28335); assay: 5-HT2c receptor affinity assay (displacement of 3H-labelled 5-HT, Scintillation Proximity Assay); conditions: displacement of 3H-5-HT from membranes of transfected HEK293 cells expressing human 5-HT2c receptor; non-specific binding 5 μM mianserin
T1 construct: expressed in transfected cells
T1 sequence (P28335 33-458): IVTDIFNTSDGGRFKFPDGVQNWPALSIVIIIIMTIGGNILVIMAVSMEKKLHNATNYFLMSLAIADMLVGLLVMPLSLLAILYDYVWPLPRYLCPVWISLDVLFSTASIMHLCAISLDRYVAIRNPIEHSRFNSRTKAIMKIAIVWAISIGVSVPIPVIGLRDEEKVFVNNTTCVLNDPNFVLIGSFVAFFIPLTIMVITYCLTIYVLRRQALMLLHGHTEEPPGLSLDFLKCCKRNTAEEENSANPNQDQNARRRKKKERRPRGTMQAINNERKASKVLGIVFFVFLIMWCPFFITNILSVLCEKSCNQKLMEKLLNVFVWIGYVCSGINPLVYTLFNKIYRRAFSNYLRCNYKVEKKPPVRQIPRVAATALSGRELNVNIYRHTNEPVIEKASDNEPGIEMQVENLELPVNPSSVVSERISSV
Method: The 5-HT2c receptor affinity of compounds in the Examples was determined in competition experiments, where the ability of each compound in serial dilution to displace ^3H-labelled 5-HT, bound to membranes prepared from a transfected HEK293 cell line stably expressing the human 5-HT2c receptor protein was monitored by Scintillation Proximity Assay technology. Non-specific binding was defined using 5 μM mianserin. Typically, the 5HT2c receptor affinity values (Ki, nM) were in the range of 1 nM to 1500 nM.

Structure (SMILES) | Ki [µM]
c1cc(OCCOc2nccnc2N2CCNCC2)ccn1 [Example 151, 2-(4-Pyridyloxy)ethyl 3-(1-piperazinyl)-2-pyrazinyl ether] | 0.185
Cc1nc(OCCOc2ccccc2)c(N2CCNCC2)nc1C [Example 183, 5,6-Dimethyl-2-(2-phenoxyethoxy)-3-(1-piperazinyl)pyrazine] | 0.01
COc1cc(OC)cc(OCCOc2nccnc2N2CCNCC2)c1 [Example 57, 2-(3,5-Dimethoxyphenoxy)ethyl 3-(1-piperazinyl)-2-pyrazinyl ether] | 0.024
c1cncc(OCCOc2nccnc2N2CCNCC2)c1 [Example 150, 2-(3-Pyridyloxy)ethyl 3-(1-piperazinyl)-2-pyrazinyl ether] | 0.05
c1ccc2c(c1)NCC(COc1nc3ccccc3nc1N1CCNCC1)O2 (stereo not drawn) [Example 167, 2-(3,4-Dihydro-2H-1,4-benzoxazin-2-ylmethoxy)-3-(1-piperazinyl)quinoxaline] | 0.034
c1ccc(CCCOc2nccnc2N2CCNCC2)nc1 [Example 125, 2-(1-piperazinyl)-3-[3-(2-pyridinyl)propoxy]pyrazine] | 0.171
C[C@@H]1CNCCN1c1nccnc1OCCOc1cccnc1 [Example 173, (2R)-Methyl-1-{3-[2-(3-pyridinyloxy)ethoxy]-2-pyrazinyl}piperazine] | 0.016
C[C@@H]1CNCCN1c1nccnc1OCCOc1cccnc1Cl [Example 194, (2R)-1-(3-{2-[(2-Chloro-3-pyridinyl)oxy]ethoxy}-2-pyrazinyl)-2-methylpiperazine] | 0.005
O=C1CCc2c(OCCOc3nccnc3N3CCNCC3)cccc21 [Example 82, 2-(1-Oxoindanyl-4-yloxy)ethyl 3-(1-piperazinyl)-2-pyrazinyl ether] | 0.116
c1ccc2oc(COc3nccnc3N3CCNCC3)cc2c1 [Example 122, 2-(Benzofuran-2-ylmethoxy)-3-(1-piperazinyl)pyrazine] | 0.045

system: not given; assay: not given; conditions: controlled studies; cited from earlier work

Structure (SMILES) | body weight effect
CCN[C@@H](C)Cc1cccc(C(F)(F)F)c1 [dexfenfluramine] | weight reduction
CNCCC(Oc1ccc(C(F)(F)F)cc1)c1ccccc1 (stereo not drawn) [fluoxetine] | weight reduction

same assay, conditions: obese subjects, after 2 weeks of treatment; cited from earlier work

Structure (SMILES) | body weight effect
Clc1cccc(N2CCNCC2)c1 [mCPP, m-chlorophenylpiperazine] | slight but sustained reduction in body weight

target: T2, 5-HT2c receptor (Mus musculus, UniProt P34968); assay: not given; conditions: mice that express the normal 5-HT2c receptor; cited from earlier work
T2 construct: mice that express the normal 5-HT2c receptor; host or cells: mice (in vivo)
T2 sequence (P34968 33-459): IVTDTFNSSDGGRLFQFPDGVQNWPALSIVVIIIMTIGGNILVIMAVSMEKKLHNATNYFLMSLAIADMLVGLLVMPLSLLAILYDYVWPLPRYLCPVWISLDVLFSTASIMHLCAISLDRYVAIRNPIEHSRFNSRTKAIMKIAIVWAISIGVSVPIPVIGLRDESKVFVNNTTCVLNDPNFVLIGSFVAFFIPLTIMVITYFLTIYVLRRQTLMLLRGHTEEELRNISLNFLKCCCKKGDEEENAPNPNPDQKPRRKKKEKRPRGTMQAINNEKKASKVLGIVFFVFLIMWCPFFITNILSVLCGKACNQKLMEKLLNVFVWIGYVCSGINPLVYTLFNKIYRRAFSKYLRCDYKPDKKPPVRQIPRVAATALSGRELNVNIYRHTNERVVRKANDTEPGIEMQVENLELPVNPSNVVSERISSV

Structure (SMILES) | body weight effect
Clc1cccc(N2CCNCC2)c1 [mCPP, m-chlorophenylpiperazine] | causes weight loss

system: 5-HT2c receptor; assay: not given; conditions: mice expressing the mutated inactive form of the 5-HT2c receptor; cited from earlier work

Structure (SMILES) | body weight effect
Clc1cccc(N2CCNCC2)c1 [mCPP, m-chlorophenylpiperazine] | lacks activity
